“Also recorded” adds a separate entry of the source. Read-outs that look alike come from different tables or passages of the source.
Assays:
[1] = system: OCI-AML2 cells; assay: MTS cell growth and viability assay, OCI-AML2; format: cell-based; conditions: OCI-AML2, 72 h, MTS assay
Experimental: (A) OCI-AML2 cells were treated for 72 h with increasing concentrations of benzimidazoles. After incubation, cell growth and viability was measured by the MTS assay. Data represent the mean percentage of viable cells ±SD from a representative experiment.

[2] = system: CEM; assay: MTS cell growth and viability assay, CEM; format: cell-based; conditions: Homo sapiens, CCRF-CEM, 3 replicates
Experimental: Leukemia (U937, MDAY, CEM, CEM-VBL) and solid tumor cell lines (PPC-1, HeLa) were cultured in RPMI 1640 medium. The epidermoid carcinoma cell lines KB-3-1 and KB-4.0-HTI^23 were grown in Dulbecco's Modified Eagle Medium. The lung carcinoma cell lines A549 and A549.EpoB40 were grown in RPMI with the latter supplemented with 20% fetal calf serum (FCS), and 40 nM epothilone B.^24 Leukemia cell lines OCI-AML2, CEM, and NB4 and all the myeloma cell lines (OPM2, KMS11, JJN3 LP1, H929, L1, KMS12, KSM18 and OCI My5) were maintained in Iscove's Modified Dulbecco's Medium (IMDM). TEX cells were maintained in IMDM, 15% FCS, 1% penicillin-streptomycin, 2 mM L-glutamine, 20 ng/mL SCF, 2 ng/mL IL-3. Unless otherwise noted, all media were supplemented with 10% FCS, 100 units/mL of streptomycin and 100 μg/mL of penicillin (all from Hyclone, Logan, Utah). Cells were incubated in a humidified air atmosphere containing 5% CO2 at 37° C.
Cell growth and viability was measured using the 3-(4,5-dimethylthiazol-2-yl)-5-(3-carboxymethoxyphenyl)-2-(4-sulfophenyl)-2H-tetrazolium inner salt (MTS) reduction assay (Promega, Madison, Wis.) according to the manufacture's protocol and as previously described^25. Cells were seeded in 96 well plates and treated with drug for 72 h. Optical density (OD) was measured at 490 nm.

[3] = system: U937 leukemia cells; assay: Analysis of gene expression (Affymetrix arrays); format: cell-based; conditions: 1.0 μM, 4 hours
Experimental: Briefly, total RNA was harvested from treated and untreated cells and hybridized to Affymetrix HG U133 Plus 2.0 gene expression oligonucleotide arrays (Affymetrix, Santa Clara, Calif., USA). Labeling and hybridization to arrays were performed by The Centre for Applied Genomics (Medical and Related Sciences Centre, Toronto, ON, Canada). Microarray data were analyzed using GeneSpring GX v10.0 (Agilent), and genes deregulated >4-fold after 4 hours flubendazole treatment were identified. Pathways and gene ontology analyses were carried out using Ingenuity Pathways Analysis (www.ingenuity.com) and the Database for Annotation, Visualization and Integrated Discovery (DAVID; http://david.abcc.ncifcrf.gov). Connectivity Map analysis, which compares the changes in gene expression signature following flubendazole treatment with gene expression signatures following treatment with other common pharmacological agents, was also performed (http://www.broadinstitute.org/cmap).

[4] = system: bovine tubulin; assay: Measurement of tubulin sulfhydryl groups (DTNB); format: biochemical; conditions: flubendazole 100 μM, vinblastine 10 μM
Experimental: A representative figure is shown.
The ability of microtubule target drugs to alter tubulin structure was assessed by measuring the number of reactive cysteine residues using the sulfhydryl reagent 5,5′-Dithio-bis(2-nitrobenzoic acid) (DTNB; Sigma) as previously described^19,29. […] After incubation, DTNB was added (100 μM final concentration) and the absorbance was measured in a 1 cm path length cuvette at 412 nm for 60 min at 37° C. The number of sulfhydryl groups were determined by using a molar extinction coefficient for DTNB of 13 600 (M^−1, cm^−1).^29

[5] = system: PPC-1 cells; assay: Microtubules in cultured cells (confocal microscopy); format: cell-based; conditions: PPC-1, 1.0 μM, 24 hours
Experimental: (D) PPC-1 cells were treated with 1.0 μM flubendazole (i) or control (ii) for 24 h and stained with DAPI and an anti α-tubulin AlexaFluor 488 nm antibody. Images were captured using an Olympus Fluorview confocal microscope at room temperature. Representative confocal micrographs at 40× are shown.
PPC-1 cells (5.0×10^3) were seeded on glass cover slips in a 6 well plate overnight at 37° C. and then treated with 1.0 μM flubendazole or vehicle control for 24 h. Cells were then fixed in 3.7% paraformeldehyde for 15 min at 37° C., permeabilized using 0.1% triton X-100 for 4 min at room temperature, and incubated at 4° C. overnight in a humidified chamber with a blocking solution (0.5% BSA). Cells were then incubated with a primary mouse anti α-tubulin antibody (clone DMIA, 1:300, in 0.5% BSA; Sigma) for 1 hour at 37° C., washed 3 times in PBS and subsequently incubated with a goat anti-mouse IgG, AlexaFluor 488 secondary antibody (1:500, Sigma) for 1 hour in the dark at room temperature. Cells were then washed, stained with 4′,6-diamidino-2-phenylindole (DAPI) and mounted on a microscope slide using Dakocytomation fluorescent mounting media (Dakocytamation, Carpinteria, Calif.). Slides were imaged using the Olympus Fluoview FV1000 Laser Scanning Confocal Microscope (Olympus America Inc., Center Valley, Pa.) at room temperature at 40×.

[6] = system: OCI-AML2 cells; assay: Cell cycle analysis (PI, flow cytometry), OCI-AML2; format: cell-based; conditions: OCI-AML2, 1.0 μM, 24 h
Experimental: OCI-AML2 cells (A) or PPC-1 cells (B) were incubated with 1.0 μM flubendazole or buffer control for 24 h. Cells were then stained with PI and the DNA content was measured by flow cytometry. A representative figure is shown.
Cell cycle analysis was performed as described by Mao et al^31. Briefly, OCI-AML2 or PPC-1 cells were harvested, washed with cold PBS and resuspended in PBS and cold absolute ethanol. Cells were then treated with 100 ng/mL of DNase-free RNase A (Invitrogen, Carlsbad, Calif.) at 37° C. for 30 min, washed with cold PBS, resuspended in PBS and incubated with 50 μg/mL of propidium iodine (PI) for 15 min at room temperature in the dark. DNA content was measured by flow cytometry (FACSCalibur, Becton Dickinson, Florida, USA) and analyzed with FlowJo software version 7.0 (TreeStar, Ashland, Oreg.).

[7] = cited from earlier work
[8] = healthy volunteers, 1000 mg single oral dose, three days after administration; cited from earlier work
[9] = rats, mice and guinea-pigs, cited from earlier work
[10] = rats, up to 150 mg/kg/day for 3 months; cited from earlier work

## COC(=O)Nc1nc2ccc(C(=O)c3ccc(F)cc3)cc2[nH]1 [flubendazole]
[1]
  rank of potency in panel of 8 benzimidazoles: most potent
[2]
  IC50: 1.9 ± 0.9 µM
[3]
  number of genes deregulated >4 fold: 196
[4]
  reduction in number of reactive cysteines compared to buffer control: 5.2±2.6
[5]
  microtubule architecture in intact cells: disrupts the microtubule architecture
[6]
  cell cycle: arrested cells in the G2 phase
[7]; healthy volunteers, single oral doses up to 2000 mg
  toxicity: without toxicity
[7]; humans, 40-50 mg/kg/day for 10 days, neurocysticercosis
  toxicity: no toxicity from the drug was reported
[7]; patients, up to 50 mg/kg orally daily for up to 24 months
  adverse effects: without serious adverse effects; also recorded: without adverse effect
[8]
  unchanged drug detected in the feces: 77%
  unchanged drug detected in the urine: less than 0.1%
[9]; intraperitoneal administration
  LD50: > 400 mg/kg
[9]; oral administration
  LD50: > 5000 mg/kg
[10]
  toxicity: No toxicity was noted

Reference: US20120202840A1, “Use of Flubendazole and Vinca Alkaloids for Treatment of Hematological Diseases” (priority 2009, published 2012)
